Literature values, collected in patent publication US20220304303A1, “INSECT REPELLENT PATCHES” (The Natural Patch Company Pty Ltd, priority 2021, published 2022).

Conditions: products containing between 10% and 30% DEET, used as directed

In the case of `CCN(CC)C(=O)c1cccc(C)c1` [DEET, Diethyltoluamide], the “safety in use on children and adults” value is given as “safe to use on children, as well as adults”.
